Patent US20250002455A1, “NEW N-PHENYLPYRROLAMIDE INHIBITORS OF DNA GYRASE AND TOPOISOMERASE IV WITH ANTIBACTERIAL ACTIVITY” (priority 2020, published 2025)
≈ marks a conversion by molar mass, not a printed value. Where two headings read alike, the source gives them in different places.

Key:
[1] = target: T1, E. coli topoisomerase IV (Escherichia coli, UniProt P20083); assay: biochemical; settings: for remaining activity at 10 µM: 10 μM compound
T1 construct: purchased Inspiralis
Procedure: Inhibitory activities for compounds of the present invention were determined on E. coli and S. aureus DNA gyrase and topoisomerase IV in an assay from Inspiralis on streptavidin-coated 96-well microtiter plates from Thermo scientific Pierce. […] After washing off the unbound oligonucleotide, the enzyme test was performed. […] Reaction solutions were incubated at 37° C. for 30 min. After that, the TF buffer (50 mM NaOAc with pH 5.0, 50 mM NaCl and 50 mM MgCl2) was added to terminate the enzymatic reaction. After additional incubation for 30 min at rt, during which biotin-oligonucleotide-plasmid triplex was formed, the unbound plasmid was washed off using TF buffer and SybrGOLD in T10 buffer (10 mM Tris HCl with pH 8.0 and 1 mM EDTA) was added. […] Initial screening was done at 100 or 10 nM concentration of inhibitors against E. coli DNA gyrase or 1 μM or 100 nM concentration against S. aureus DNA gyrase and E. coli and S. aureus topo IV. […] GraphPad Prism 6.0 software was used to calculate the IC50 values. The result is given as the average value of three independent measurements. […] Chemoth.

[2] = target: T2, S. aureus DNA gyrase (Staphylococcus aureus, UniProt P0A0K8); assay: biochemical
T2 construct: purchased Inspiralis
T2 sequence (P20831 whole entry): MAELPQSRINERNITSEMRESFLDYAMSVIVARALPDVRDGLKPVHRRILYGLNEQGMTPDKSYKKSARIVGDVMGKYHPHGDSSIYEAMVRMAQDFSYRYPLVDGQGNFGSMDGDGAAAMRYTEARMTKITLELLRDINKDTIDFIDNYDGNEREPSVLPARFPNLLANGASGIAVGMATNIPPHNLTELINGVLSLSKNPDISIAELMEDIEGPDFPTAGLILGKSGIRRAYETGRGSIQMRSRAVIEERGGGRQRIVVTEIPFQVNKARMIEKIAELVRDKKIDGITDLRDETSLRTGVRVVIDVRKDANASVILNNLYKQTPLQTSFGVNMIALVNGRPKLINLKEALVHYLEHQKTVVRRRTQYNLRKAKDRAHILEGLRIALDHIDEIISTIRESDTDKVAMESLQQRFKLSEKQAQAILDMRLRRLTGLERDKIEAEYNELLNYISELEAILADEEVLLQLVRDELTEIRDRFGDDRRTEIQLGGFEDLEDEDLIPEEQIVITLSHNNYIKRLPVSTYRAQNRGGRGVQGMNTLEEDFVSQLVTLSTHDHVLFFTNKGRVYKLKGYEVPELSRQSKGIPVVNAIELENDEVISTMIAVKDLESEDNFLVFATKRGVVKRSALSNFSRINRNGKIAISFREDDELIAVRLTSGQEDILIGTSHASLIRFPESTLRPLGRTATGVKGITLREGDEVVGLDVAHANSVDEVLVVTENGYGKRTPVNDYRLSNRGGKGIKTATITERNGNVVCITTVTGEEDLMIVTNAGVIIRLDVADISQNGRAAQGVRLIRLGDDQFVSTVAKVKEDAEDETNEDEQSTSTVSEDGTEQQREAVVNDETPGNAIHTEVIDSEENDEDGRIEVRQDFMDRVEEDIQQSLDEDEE
T2 sequence (P0A0K8 whole entry): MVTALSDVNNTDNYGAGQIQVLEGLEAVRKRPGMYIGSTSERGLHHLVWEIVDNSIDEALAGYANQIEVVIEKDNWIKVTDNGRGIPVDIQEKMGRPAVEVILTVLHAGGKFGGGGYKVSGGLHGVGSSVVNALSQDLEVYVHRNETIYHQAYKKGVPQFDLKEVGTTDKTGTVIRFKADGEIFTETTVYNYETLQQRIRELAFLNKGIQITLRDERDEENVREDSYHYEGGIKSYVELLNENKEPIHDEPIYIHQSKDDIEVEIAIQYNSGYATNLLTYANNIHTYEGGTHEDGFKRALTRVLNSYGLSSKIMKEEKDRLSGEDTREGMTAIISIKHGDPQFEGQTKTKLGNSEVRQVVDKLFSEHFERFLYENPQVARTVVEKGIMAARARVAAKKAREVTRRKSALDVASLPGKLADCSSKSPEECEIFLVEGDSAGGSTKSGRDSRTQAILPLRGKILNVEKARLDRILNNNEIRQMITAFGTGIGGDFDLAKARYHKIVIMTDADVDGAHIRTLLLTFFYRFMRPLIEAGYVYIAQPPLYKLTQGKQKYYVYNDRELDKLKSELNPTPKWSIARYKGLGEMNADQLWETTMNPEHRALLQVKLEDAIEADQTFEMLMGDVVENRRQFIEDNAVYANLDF
Procedure: (§1) Inhibitory activities for compounds of the present invention were determined on E. coli and S. aureus DNA gyrase and topoisomerase IV in an assay from Inspiralis on streptavidin-coated 96-well microtiter plates from Thermo scientific Pierce. […] After washing off the unbound oligonucleotide, the enzyme test was performed. […] Reaction solutions were incubated at 37° C. for 30 min. After that, the TF buffer (50 mM NaOAc with pH 5.0, 50 mM NaCl and 50 mM MgCl2) was added to terminate the enzymatic reaction. After additional incubation for 30 min at rt, during which biotin-oligonucleotide-plasmid triplex was formed, the unbound plasmid was washed off using TF buffer and SybrGOLD in T10 buffer (10 mM Tris HCl with pH 8.0 and 1 mM EDTA) was added. […] GraphPad Prism 6.0 software was used to calculate the IC50 values. The result is given as the average value of three independent measurements. […] Chemoth.

[3] = target: T3, E. coli DNA gyrase (Escherichia coli, UniProt P0AES6); assay: biochemical
T3 construct: purchased Inspiralis
Procedure: as §1

[4] = tested on: S. aureus ATCC 29213; assay: Microbroth dilution MIC (CLSI); format: cell-based; settings: Staphylococcus aureus, ATCC29213
Procedure: (§2) The chemical entities described in the present invention were assessed for their antimicrobial activity using a microbroth dilution assay as recommended by the CLSI (Methods for Dilution Antimicrobial Susceptibility Tests for Bacteria That Grow Aerobically, and Methods for Antimicrobial Susceptibility Testing of Anaerobic Bacteria, Clinical and Laboratory Standards Institute, Document M07-A8, and M11-A8, Wayne, PA 19087, USA, 2012.). Compounds were dissolved by using 100% DMSO. Serial two-fold dilutions of each compound were made by using 100% DMSO as the diluent.
(§3) A library of Gram-negative and Gram-positive microbes and their drug- and multidrug-resistant variants were employed as test organisms. The MIC (minimum inhibitory concentration) was determined as the lowest concentration of an individual drug that lead to no visible growth.

[5] = tested on: S. aureus ATCC 43300 (MRSA); assay: Microbroth dilution MIC (CLSI); format: cell-based; settings: Staphylococcus aureus
Procedure: as §2, §3

[6] = tested on: A. baumannii ATCC 17978; assay: Microbroth dilution MIC (CLSI); format: cell-based; settings: Acinetobacter baumannii, ATCC17978
Procedure: as §2, §3

[7] = tested on: E. faecalis ATCC 29212; assay: Microbroth dilution MIC (CLSI); format: cell-based; settings: Enterococcus faecalis, ATCC29212
Procedure: as §2, §3

[8] = tested on: S. aureus ATCC 700699 (VISA); assay: Microbroth dilution MIC (CLSI); format: cell-based; settings: Staphylococcus aureus
Procedure: as §2, §3

[9] = tested on: P. aeruginosa ATCC 27853; assay: Microbroth dilution MIC (CLSI); format: cell-based; settings: Pseudomonas aeruginosa, ATCC27853
Procedure: as §2, §3

[10] = tested on: K. pneumoniae ATCC 10031; assay: Microbroth dilution MIC (CLSI); format: cell-based; settings: Klebsiella pneumoniae, ATCC10031
Procedure: as §2, §3

[11] = tested on: E. spp. cloacae ATCC 13047; assay: Microbroth dilution MIC (CLSI); format: cell-based; settings: Enterobacter cloacae, ATCC13047
Procedure: as §2, §3

[12] = tested on: E. faecium ATCC 700221; assay: Microbroth dilution MIC (CLSI); format: cell-based; settings: Enterococcus faecium, ATCC700221
Procedure: as §2, §3

[13] = tested on: E. coli ATCC 25922; assay: Microbroth dilution MIC (CLSI); format: cell-based; settings: Escherichia coli, ATCC25922
Procedure: as §2, §3

[14] = E. coli DNA gyrase, read-out: IC50
[15] = S. aureus ATCC 29213, read-out: MIC
[16] = S. aureus ATCC 43300 (MRSA), read-out: MIC
[17] = A. baumannii ATCC 17978, read-out: MIC
[18] = E. faecalis ATCC 29212, read-out: MIC
[19] = S. aureus ATCC 700699 (VISA), read-out: MIC
[20] = P. aeruginosa ATCC 27853, read-out: MIC
[21] = K. pneumoniae ATCC 10031, read-out: MIC
[22] = E. spp. cloacae ATCC 13047, read-out: MIC
[23] = E. faecium ATCC 700221, read-out: MIC
[24] = E. coli ATCC 25922, read-out: MIC
[25] = E. coli topo IV, read-out: RA (residual activity of the enzyme)

T1 sequence (P0AFI2 whole entry): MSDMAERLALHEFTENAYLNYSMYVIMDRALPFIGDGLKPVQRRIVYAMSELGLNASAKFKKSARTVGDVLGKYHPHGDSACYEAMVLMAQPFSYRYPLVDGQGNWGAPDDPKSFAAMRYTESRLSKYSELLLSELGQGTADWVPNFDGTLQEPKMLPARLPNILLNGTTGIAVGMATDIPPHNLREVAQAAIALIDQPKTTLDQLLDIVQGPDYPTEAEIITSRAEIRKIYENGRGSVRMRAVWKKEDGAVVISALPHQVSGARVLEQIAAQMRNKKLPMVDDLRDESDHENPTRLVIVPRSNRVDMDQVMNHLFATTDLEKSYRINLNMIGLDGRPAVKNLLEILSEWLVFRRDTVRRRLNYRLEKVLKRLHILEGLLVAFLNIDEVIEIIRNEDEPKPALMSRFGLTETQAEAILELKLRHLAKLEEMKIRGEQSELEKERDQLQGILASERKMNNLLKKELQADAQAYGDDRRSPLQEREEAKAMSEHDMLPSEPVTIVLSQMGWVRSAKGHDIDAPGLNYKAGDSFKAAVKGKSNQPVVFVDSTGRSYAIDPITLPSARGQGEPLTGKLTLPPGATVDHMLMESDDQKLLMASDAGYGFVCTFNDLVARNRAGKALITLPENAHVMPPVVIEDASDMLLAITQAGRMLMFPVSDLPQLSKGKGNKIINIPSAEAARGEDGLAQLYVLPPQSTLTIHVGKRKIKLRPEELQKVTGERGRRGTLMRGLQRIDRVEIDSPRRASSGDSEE
T1 sequence (P20083 whole entry): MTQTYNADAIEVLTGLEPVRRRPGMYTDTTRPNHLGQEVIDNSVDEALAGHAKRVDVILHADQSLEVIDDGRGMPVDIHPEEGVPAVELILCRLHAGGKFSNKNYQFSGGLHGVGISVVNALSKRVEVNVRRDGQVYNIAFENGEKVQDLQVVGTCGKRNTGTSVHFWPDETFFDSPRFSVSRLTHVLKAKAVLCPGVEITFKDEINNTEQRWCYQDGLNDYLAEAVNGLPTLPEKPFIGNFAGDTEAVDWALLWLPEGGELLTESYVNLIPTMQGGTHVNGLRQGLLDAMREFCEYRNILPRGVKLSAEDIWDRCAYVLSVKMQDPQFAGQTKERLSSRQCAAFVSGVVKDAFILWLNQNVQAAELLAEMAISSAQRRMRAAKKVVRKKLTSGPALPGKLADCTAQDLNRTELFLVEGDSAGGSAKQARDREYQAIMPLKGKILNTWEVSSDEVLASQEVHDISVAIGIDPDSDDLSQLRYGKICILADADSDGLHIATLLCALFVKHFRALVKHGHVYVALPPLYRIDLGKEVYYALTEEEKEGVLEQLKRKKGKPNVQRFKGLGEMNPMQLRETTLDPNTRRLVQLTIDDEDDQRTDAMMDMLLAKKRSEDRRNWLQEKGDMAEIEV

SMILES	IC50 [3, 14] [nM]	MIC [4, 15] [µg/mL]	MIC [5, 16] [µg/mL]	MIC [6, 17] [µg/mL]	MIC [7, 18] [µg/mL]	MIC [8, 19] [µg/mL]	MIC [9, 20] [µg/mL]	MIC [10, 21] [µg/mL]	MIC [11, 22] [µg/mL]	MIC [12, 23] [µg/mL]	MIC [13, 24] [µg/mL]	remaining activity at 10 µM [1, 25] [%]	also measured
Cc1[nH]c(C(=O)Nc2ccc(-c3nn[nH]n3)cc2N2CCCC(CN)C2)c(Cl)c1Cl.Cl (stereo not drawn) [Example 9, (1-(2-(3,4-Dichloro-5-methyl-1H-pyrrole-2-carboxamido)-5-(2H-tetrazol-5-yl)phenyl)piperidin-3-yl)methanaminium chloride]	2.16	16	> 64	> 64	8	> 64	> 64	64	> 64	16	> 64		IC50 ([1]; E. coli topo IV, read-out: IC50): 60.3 nM; IC50 ([2]; S. aureus DNA gyrase, read-out: IC50): 35 nM
Cc1[nH]c(C(=O)Nc2ccc(-c3n[nH]c(=O)o3)cc2OCCC2CCNCC2)c(Cl)c1Cl.Cl [Example 29, 4-(2-(2-(3,4-Dichloro-5-methyl-1H-pyrrole-2-carboxamido)-5-(5-oxo-4,5-dihydro-1,3,4-oxadiazol-2-yl)phenoxy)ethyl)piperidin-1-ium chloride]		≥ 32	≥ 32	≥ 32	≥ 32	≥ 32	≥ 32	≥ 32	≥ 32	≥ 32	≥ 32	103	remaining activity at 0.01 µM ([3]; E. coli DNA gyrase, 10 nM compound, read-out: RA (residual activity of the enzyme)): 1%
Cc1[nH]c(C(=O)Nc2ccc(-c3noc(=O)[nH]3)cc2NC2CCNCC2)c(Cl)c1Cl.Cl [Example 4, 4-((2-(3,4-Dichloro-5-methyl-1H-pyrrole-2-carboxamido)-5-(5-oxo-4,5-dihydro-1,2,4-oxadiazol-3-yl)phenyl)amino)piperidin-1-ium chloride]													IC50 [1]: 1180 nM; IC50 [2]: 249 nM; IC50 [3]: 9.66 nM; MIC [4]: > 64 µg/mL; MIC [5]: > 64 µg/mL; MIC [6]: > 64 µg/mL; MIC [7]: > 64 µg/mL; MIC [8]: > 64 µg/mL; MIC [9]: > 64 µg/mL; MIC [10]: > 64 µg/mL; MIC [11]: > 64 µg/mL; MIC [12]: > 64 µg/mL; MIC [13]: > 64 µg/mL
Cc1[nH]c(C(=O)Nc2ccc(-c3noc(=O)[nH]3)cc2N2CCC(N)CC2)c(Cl)c1Cl.Cl [Example 1, 1-(2-(3,4-Dichloro-5-methyl-1H-pyrrole-2-carboxamido)-5-(5-oxo-4,5-dihydro-1,2,4-oxadiazol-3-yl)phenyl)piperidin-4-aminium chloride]	0.253	64	32	≥ 64	32	16	≥ 64	64	≥ 64	32	≥ 64		remaining activity at 0.1 µM ([1]; E. coli topo IV, 0.1 μM compound, read-out: RA (residual activity of the enzyme)): 105%; remaining activity at 1 µM ([1]; E. coli topo IV, 1 μM compound, read-out: RA (residual activity of the enzyme)): 33%
Cc1[nH]c(C(=O)Nc2ccc(-n3nn[nH]c3=O)cc2N2Cc3ccccc3C2)c(Cl)c1Cl [Example 25, 3,4-Dichloro-N-(2-(isoindolin-2-yl)-4-(5-oxo-4,5-dihydro-1H-tetrazol-1-yl)phenyl)-5-methyl-1H-pyrrole-2-carboxamide]		16 (≈ 34 µM)	> 64	> 64	0.25 (≈ 0.532 µM)	> 64	> 64	> 64	> 64	0.5 (≈ 1.06 µM)	> 64	105	remaining activity at 10 pM ([3]; E. coli DNA gyrase, 0.01 nM compound, read-out: RA (residual activity of the enzyme)): 73%; remaining activity at 0.0001 µM ([3]; E. coli DNA gyrase, 0.1 nM compound, read-out: RA (residual activity of the enzyme)): 26%
Cc1[nH]c(C(=O)Nc2ccc(-c3n[nH]c(=O)o3)cc2OCc2ccccc2)c(Cl)c1Cl [Example 11, N-(2-(Benzyloxy)-4-(5-oxo-4,5-dihydro-1,3,4-oxadiazol-2-yl)phenyl)-3,4-dichloro-5-methyl-1H-pyrrole-2-carboxamide]	886	≥ 32	≥ 32	≥ 32	≥ 32	≥ 32	≥ 32	≥ 32	≥ 32	≥ 32	≥ 32	106	
Cc1[nH]c(C(=O)Nc2ccc(C(=O)O)cc2NC2CCNCC2)c(Cl)c1Cl.Cl [Example 15, 4-((5-Carboxy-2-(3,4-dichloro-5-methyl-1H-pyrrole-2-carboxamido)phenyl)amino)piperidin-1-ium chloride]	532	> 64	> 64	> 64	> 64	> 64	> 64	> 64	> 64	> 64	> 64		
Cc1[nH]c(C(=O)Nc2ccc(-c3n[nH]c(=O)o3)cc2OCC2CCCNC2)c(Cl)c1Cl.Cl (stereo not drawn) [Example 28, 3-((2-(3,4-Dichloro-5-methyl-1H-pyrrole-2-carboxamido)-5-(5-oxo-4,5-dihydro-1,3,4-oxadiazol-2-yl)phenoxy)methyl)piperidin-1-ium chloride]	0.75	> 64	> 64	> 64	> 64	> 64	> 64	0.5	> 64	> 64	> 64		
Cc1[nH]c(C(=O)Nc2ccc(-c3noc(=O)[nH]3)cc2N2CCCC2)c(Cl)c1Cl [Example 6, 3,4-Dichloro-5-methyl-N-(4-(5-oxo-4,5-dihydro-1,2,4-oxadiazol-3-yl)-2-(pyrrolidin-1-yl)phenyl)-1H-pyrrole-2-carboxamide]	12.6	> 64	0.5 (≈ 1.18 µM)	> 64	< 0.0312	< 0.0313	> 64	> 64	> 64	0.0625 (≈ 0.148 µM)	> 64		
Cc1[nH]c(C(=O)Nc2ccc(-c3n[nH]c(=O)o3)cc2NC2CCNCC2)c(Cl)c1Cl.Cl [Example 19, 4-((2-(3,4-Dichloro-5-methyl-1H-pyrrole-2-carboxamido)-5-(5-oxo-4,5-dihydro-1,3,4-oxadiazol-2-yl)phenyl)amino)piperidin-1-ium chloride]	4.4	> 64	> 64	> 64	> 64	> 64	> 64	2	> 64	> 64	> 64		
